What is called inhibition is the relative decrease from the control value, in per cent. A word on the IC50: it is the point on the concentration scale where inhibition reaches its midpoint. For orientation: melting point means the temperature of the solid-liquid transition.

The text below walks through data of US7888510B2, “2-′4(phenylamino)-piperidin-1-yl!-n-phenyl-acetamine derivatives and related compounds as neuropeptide Y5 (NPY5) ligands for the treatment of obesity” (Laboratorios del Dr. Esteve S.A., priority 2003, dated 2011).

Structures can show the parent of a compound that is named as a salt.

One data set concerns the target T1, rat Y5 receptor (Rattus norvegicus, UniProt Q63634).
T1 construct: expressed in transfected cells; host or cells: C6 cells (membrane preparation)
T1 sequence (Q63634 1-445): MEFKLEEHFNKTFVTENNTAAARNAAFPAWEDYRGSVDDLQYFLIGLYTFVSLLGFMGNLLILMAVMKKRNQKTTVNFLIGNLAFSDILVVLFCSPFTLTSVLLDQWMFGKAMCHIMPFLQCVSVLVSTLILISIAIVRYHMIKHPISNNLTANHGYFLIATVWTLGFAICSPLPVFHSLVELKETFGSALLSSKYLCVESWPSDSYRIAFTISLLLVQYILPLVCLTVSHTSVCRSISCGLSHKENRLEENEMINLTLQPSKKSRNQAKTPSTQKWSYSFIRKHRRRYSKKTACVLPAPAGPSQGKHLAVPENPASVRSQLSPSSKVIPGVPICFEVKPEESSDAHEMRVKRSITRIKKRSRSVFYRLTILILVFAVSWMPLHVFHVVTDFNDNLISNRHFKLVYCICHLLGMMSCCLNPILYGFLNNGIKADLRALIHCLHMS
The data set is described as follows: Neuropeptide Y5 receptor binding ([125I]-PYY displacement, membranes of transfected C6 cells). The settings on record: 10^−6 M; membranes of C6 cells transfected with the rat Y5 receptor; radioligand [125I]-PYY 100 pM. The protocol: Neuropeptide Y5 Receptor Binding Studies:
The methods used for membrane preparation and binding are similar to those described by Y. Hu, B. T. Bloomquist et al. in Y. Hu, B. T. Bloomquist et al., The Journal of Biological Chemistry, 1996, 271, 26315-26319 with modifications. Said literature description is herewith incorporated by reference and forms part of the disclosure. Cells C6 were transfected with the rat Y5 receptor. The cells were grown under standard culture conditions in 150 cm^2 dishes and they were harvested using a rubber scraper and 10 ml PBS. The cells from five dishes were collected and centrifuged 2.500 g for 5 min (4° C.). The pellet was washed by resuspending in 3 ml buffer (Tris-HCl 10 mM, pH 7.4), homogenized using a Potter S homogenizer, 10 strokes at 600 rpm and centrifuged 48.000 g for 20 min (4° C.). The pellet was resuspended in 8 ml membrane buffer (Tris-HCl 25 mM, NaCl 120 mM, KCl 5 mM, KH2PO4 1.2 mM, CaCl2 2.5 mM, MgSO4 1.2 mM, BSA 0.15 mg/ml, Bacitracine 0.5 mg/ml, pH 7.4) and rehomogenized using the Potter S, 10 strokes at 600 rpm. The protein concentration in the incubation was […]. The radioligand was [^125I]-PYY (100 pM) in a total incubation volume of 200 μl. Following incubation at 25° C. for 2 h, the reaction was stopped by addition of 5 ml ice-cold buffer (Tris-HCl 25 mM, NaCl 120 mM, KCl 5 mM, KH2PO4 1.2 mM, CaCl2 2.5 mM, MgSO4 1.2 mM, pH 7.4) and rapid filtration in a Harvester Brandell Cell using filters (Schleicher & Schuell GF 3362) pretreated for two hours with 0.5% polyethyleneimine. Filters were washed one time with 5 ml ice-cold buffer. The filters were placed into plastic scintilation vials and 5 ml scintilation cocktail Ecoscint H were added. The quantity of radioactivity present was determined in a Wallac Winspectral 1414 counter. Non specific binding was determined in the presence of 1 μM de pNPY. All binding assays were done in triplicate.
In the case of `Cc1ccc(NC2CCN(CC(=O)Nc3cnc4ccccc4c3)CC2)c(CO)c1` [Example 5, 2-[4-(2-Hydroxymethyl-4-methyl-phenylamino)-piperidin-1-yl]-N-quinolin-3-yl-acetamide], the inhibition at 1 µM was 86.2%. Still for that read-out and setting: next, `Cc1ccc(NC2CCN(CC(=O)Nc3ccc4ncccc4c3)CC2)c(CO)c1` [Example 7, 2-[4-(2-Hydroxymethyl-4-methyl-phenylamino)-piperidin-1-yl]-N-quinolin-6-yl-acetamide]: 82.3%. The same measure, in the same setting: with `Cc1cccc(CO)c1NC1CCN(CC(=O)Nc2cnc3ccccc3c2)CC1` [Example 9, 2-[4-(2-Hydroxymethyl-6-methyl-phenylamino)-piperidin-1-yl]-N-quinolin-3-yl-acetamide] the figure was 80.4%.

`Cc1cccc(CO)c1NC1CCN(CC(=O)Nc2ccc3ncccc3c2)CC1` [Example 11, 2-[4-(2-Hydroxymethyl-6-methyl-phenylamino)-piperidin-1-yl]-N-quinolin-6-yl-acetamide] showed an inhibition at 1 µM of 73.9%. The same measure, in the same setting: with `O=C(CN1CCC(Nc2ccccc2CO)CC1)Nc1ccc(C(=O)c2ccccc2)cc1` [Example 13, N-(4-Benzoyl-phenyl)-2-[4-(2-hydroxymethyl-phenylamino)-piperidin-1-yl]-acetamide] the figure was 81.5%.

In turn, `Cc1ccc(NC2CCN(CC(=O)Nc3ccc(C(=O)c4ccccc4)cc3)CC2)c(CO)c1` [Example 14, N-(4-Benzoyl-phenyl)-2-[4-(2-hydroxymethyl-4-methyl-phenylamino)-piperidin-1-yl]-acetamide] came in with an inhibition at 1 µM of 88.9%.

On to `Cc1cccc(CO)c1NC1CCN(CC(=O)Nc2ccc(C(=O)c3ccccc3)cc2)CC1` [Example 15, N-(4-Benzoyl-phenyl)-2-[4-(2-hydroxymethyl-6-methyl-phenylamino)-piperidin-1-yl]-acetamide], for which testing at 1 µM gave an inhibition of 93.2%.

Staying with this data set, now noted: membranes of C6 cells transfected with the rat Y5 receptor; radioligand [125I]-PYY 100 pM; 25° C., 2 h.
Take `CCn1c2ccccc2c2cc(NC(=O)CN3CCC(Nc4c(C)cccc4CO)CC3)ccc21` [Example 1a, N-(9-Ethyl-9H-carbazol-3-yl)-2-[4-(2-hydroxymethyl-6-methyl-phenylamino)-piperidin-yl]acetamide dihydrochloride]: the 50% inhibitory concentration (IC50) worked out at 50 nM. `Cc1ccc(NC2CCN(CC(=O)Nc3ccc4c(c3)-c3ccccc3C4=O)CC2)c(CO)c1` [Example 2a, 2-[4-(2-Hydroxymethyl-4-methyl-phenylamino)-piperidin-1-yl]-N-(9-oxo-9H-fluoren-3-yl)-acetamide] displayed an IC50 of 80.9 nM. As for `Cc1cccc(CO)c1NC1CCN(CC(=O)Nc2ccc3c(c2)-c2ccccc2C3=O)CC1` [Example 3a, 2-[4-(2-Hydroxymethyl-6-methyl-phenylamino)-piperidin-1-yl]-N-(9-oxo-9H-fluoren-3-yl)-acetamide], the IC50 was found to be 36.3 nM. This IC50 is about 2.2-fold lower than that of the molecule before. In turn, `Cc1cccc(CO)c1NC1CCN(CC(=O)Nc2ccc3c(c2)-c2ccccc2C3O)CC1` (stereo not drawn) [Example 5a, N-(9-Hydroxy-9H-fluoren-3-yl)-2-[4-(2-hydroxymethyl-6-methyl-phenylamino)-piperidin-1-yl]-acetamide] returned an IC50 of 40.1 nM.

Test system in a further data set: not given
Test: not given
Details: not given
Consider `COC(=O)c1ccccc1NC1CCN(CC(=O)Nc2ccc3c(c2)-c2ccccc2C3=O)CC1.Cl`, for which the melting point stood at 258 °C.

In turn, `O=C(CN1CCC(Nc2ccccc2CO)CC1)Nc1ccc2c(c1)CCC2=O` returned a melting point of 138 to 140 °C. As for `Cc1ccc(NC2CCN(CC(=O)Nc3ccc4c(c3)-c3ccccc3C4=O)CC2)c(CO)c1` [Example 2a, 2-[4-(2-Hydroxymethyl-4-methyl-phenylamino)-piperidin-1-yl]-N-(9-oxo-9H-fluoren-3-yl)-acetamide], the melting point is 152 °C. The same measure, in the same setting: next, `Cc1cccc(CO)c1NC1CCN(CC(=O)Nc2ccc3c(c2)-c2ccccc2C3=O)CC1` [Example 3a, 2-[4-(2-Hydroxymethyl-6-methyl-phenylamino)-piperidin-1-yl]-N-(9-oxo-9H-fluoren-3-yl)-acetamide]: 113 °C; `Cc1ccc(NC2CCN(CC(=O)Nc3ccc4c(c3)-c3ccccc3C4O)CC2)c(CO)c1` (stereo not drawn) [Example 4a, N-(9-Hydroxy-9H-fluoren-3-yl)-2-[4-(2-hydroxymethyl-4-methyl-phenylamino)-piperidin-1-yl]-acetamide]: 124 °C; `Cc1cccc(CO)c1NC1CCN(CC(=O)Nc2ccc3c(c2)-c2ccccc2C3O)CC1` (stereo not drawn) [Example 5a, N-(9-Hydroxy-9H-fluoren-3-yl)-2-[4-(2-hydroxymethyl-6-methyl-phenylamino)-piperidin-1-yl]-acetamide]: 133 °C. Molecule `Cc1ccc(NC2CCN(CC(=O)Nc3ccccc3)CC2)c(CO)c1` [Example 7a, 2-[4-(2-Hydroxymethyl-4-methyl-phenylamino)-piperidin-1-yl]-N-phenyl-acetamide] returned a melting point of 128 °C.
